Earlier results in patent publication US11399559B2, “Nutritional products having improved lipophilic solubility and bioavailability in an easily mixable form” (ABBOTT LABORATORIES, priority 2015, dated 2022).
Where two headings read alike, the source gives them in different places.

Cc1c(C)c2c(c(C)c1O)CC[C@@](C)(CCC[C@H](C)CCC[C@H](C)CCCC(C)C)O2 [RRR-alpha-tocopherol]
Biological activity relative to all-rac-alpha-tocopherol (accepted nutritional guidelines): 1.36 times | Biological activity relative to all-rac-alpha-tocopherol (recent studies): about 2 times
